Assays:
[1] = tested on: 48-G7 antibody (monoclonal IgG made against a p-nitrophenylphosphonate hapten); test: 48-G7 antibody-catalyzed hydrolysis of p-nitrophenylcarbonate in aqueous tris buffer, inhibition by transition state analog; type: biochemical; settings: 24 µM inhibitor, 90 µg/ml 48-G7, 10 mM tris buffer pH 8.5
Description: A solution of the 48-G7 antibody was purified from ascites fluid by Protein A chromatography. Following dialysis of the IgG fractions which were obtained into 10 mM tris buffer, 4.0 ml of a 3.0 mg/ml solution of this protein was lyophilyzed to dryness. The protein powder was then resuspended in 1.5 ml of 10 mM tris buffer (pH 8.5). When 10 µl of this antibody solution was added to one milliliter of buffer, a protein concentration of 0.090 mg/ml resulted (as determined from 280 nm and 260 nm absorbances). Thus, the stock antibody solution was 9.0 mg/ml.
The rate of antibody catalyzed hydrolysis of p-nitrophenylcarbonate was determined by adding 15 µl of a 50 mM p-nitrophenylcarbonate (p-NPC) solution dissolved in tetrahydrofuran to 3.0 ml of 10 mM tris buffer (pH 8.5). After this solution was mixed to homogeneity, 1.0 ml was transferred into a reference cuvette and 1.0 ml was transferred into a sample cuvette. An assay was initiated by addition of 10 µl of the 48-G7 antibody solution (0.090 mg). The progress of the reaction was monitored with a Hitachi Model 3200 double beam spectrophotometer (to screen out the rate of solvent-induced background hydrolysis) at 400 nm. The extinction coefficient for the product, p-nitrophenol, was 18,300 M^-1 cm^-1 at pH 8.5.

[2] = tested on: 48-G7 antibody (monoclonal IgG made against a p-nitrophenylphosphonate hapten); test: 48-G7 antibody-catalyzed hydrolysis of p-nitrophenylcarbonate in AOT/iso-octane microemulsion, inhibition by transition state analog; type: biochemical; settings: 24 µM final concentration of inhibitor; 50 mM AOT in iso-octane, 888 µM p-NPC; uninhibited rate 0.00028 Abs/minute
Description: The rate of 48-G7 antibody-catalyzed hydrolysis of p-NPC was determined in a 50 mM solution of sodium bi-(2-ethylhexyl) sulfosuccinate ("AOT") in iso-octane containing 888 µM of p-NPC. First 20 ml of the iso-octane solution containing 0.445 g of AOT (M.W.=445g) and 3.5 mg of p-NPC (M.W.-197g) were prepared. To this solution […] (pH 8.5) and 10 µl of the 48-G7 antibody solution were added. A microemulsion of disperse aqueous phase in the iso-octane was obtained by mixing. The hydrolysis of p-NPC and the production of p-nitrophenol was monitored at 400 nm, although an accurate conversion between 400 nm absorbance and moles of p-nitrophenol formed was not possible because the pH inside the microemulsified aqueous phase particles could not be accurately determined.
Upon addition of the 48-G7 antibody solution, the biphasic system became turbid as the antibody-containing, microemulsified aqueous phase particles formed. Subsequently, absorbance at 400 nm began to increase as p-nitrophenol was formed. The rate of 400 nm absorbance increase was 0.00028 Abs/minute.
When this experiment was repeated with the 10 µl of tris buffer containing 2.4 mM p-nitrophosphonate hapten (24 µM final concentration), the initial 400 nm absorbance was similar to the non-inhibited antibody solution. […] Instead, the 400 nm absorbance continued to decrease. […]

For `O=[N+]([O-])c1ccc(P(=O)(O)O)cc1` [p-nitrophenylphosphonate], the “rate of hydrolysis of p-NPC in the presence of inhibitor” value ([1]; uninhibited rate 0.49 µmolar p-NPC per minute) was 0.109 µM/min, the “rate of hydrolysis of p-NPC in the presence of inhibitor (400 nm absorbance)” value ([1]; uninhibited rate 0.0089 Abs/min) was 0.002 Abs units/minute and the “400 nm absorbance (p-nitrophenylcarbonate hydrolysis) in the presence of inhibitor” value [2] was “did not rise”.

— patent publication EP0414755B1, “INTERACTION SYSTEM COMPRISING A SURFACTANT-STABILIZED DISPERSE AQUEOUS PHASE CONTAINING AN ANTIBODY OR ANTIBODY FRAGMENT” (IGEN, INC., priority 1988, dated 1989)
